Measured values: article PMC10672039, “Novel Ca-Chelating Peptides from Protein Hydrolysate of Antarctic Krill (Euphausia superba): Preparation, Characterization, and Calcium Absorption Efficiency in Caco-2 Cell Monolayer Model” (Marine Drugs, 2023)
Peptide text beside a SMILES is read from it.

Experiments:
Caco-2 cells = experiment: Cytotoxicity, MTT assay; type: cell-based, Human; conditions: 24 h treatment
Description: (§1) Caco-2 cells were obtained from the Shanghai Institute of Cell Biology (Shanghai, China) and cultured in EMEM with 10% fetal bovine serum, 1% antibiotic, and 1% nonessential amino acids in a humidified incubator at 37 °C with 5% CO2. The cell culture medium was replaced every two days with a new medium of equal volume. The Caco-2 cells were dispersed using trypsin-EDTA when they covered approximately 90% of the flask and were seeded on 6-well transwell culture plates with polyester membranes. The medium was replaced every other day with a new medium of equal volume. After being cultured for 21 days, the transepithelial electrical resistance (TEER) was determined to confirm the integrity of the Caco-2 cell monolayers. The Caco-2 cell monolayers were used for Ca transport experiments when the TEER exceeded 300 Ω·cm^2 [60, 66].
Cell cytotoxicity was determined using the MTT assay. […] Then, MTT solution (100 μL) was added per well and incubated for an additional 4 h. The MTT solution per well was replaced by an equal volume of DMSO solution to solubilize. Finally, the absorbance of the sample solution at 570 nm was measured.

Caco-2 cell monolayer = experiment: Ca transport across the Caco-2 cell monolayer; type: in vitro ADME, Human; conditions: Caco-2 monolayer, mean ± SD, n = 3
Description: as §1
The Ca transport in the Caco-2 cell monolayer model was analyzed using previous methods. After 21 days of incubation, the culture medium of Caco-2 cells was discarded from each well, and monolayers were immediately washed with HBSS buffer (without Ca and magnesium) two times. The Caco-2 cell monolayers were transferred to a new 6-well culture plate containing 2 mL of HBSS buffer, and 2 mL of HBSS buffer was also added to the apical side. After incubating for 30 min, the HBSS on the apical side was replaced with 2 mL of HBSS containing VERG-Ca chelate (200 μM) or Ca (150 μg/mL), and the HBSS on the basolateral side was replaced with an equal volume of fresh HBSS buffer. After incubation for 2 h, 1 mL of HBSS in the basolateral side was removed to determine Ca content at the designed time (30, 60,120, and 180 min). At the same time, fresh HBSS buffer (1 mL) was added to the basolateral side to maintain a constant volume. The content of Ca was determined by atomic absorption spectrometry using HNO3 and HClO4 as the oxidizers.
In the experiments on the effects of vitamin D3 and phytate on Ca absorption, dietary factors (vitamin D3 and phytate) were first premixed with VERG-Ca chelate or CaCl2, respectively, at a mass ratio of 1:1. […]

| Structure (SMILES) | effect on viability of Caco-2 cells (Caco-2 cells; 250 μM, vs control group (p < 0.05)) | effect on viability of Caco-2 cells (Caco-2 cells; 50–200 μM, vs control group) | absorption amount of Ca with phytate (Caco-2 cell monolayer; 180 min (stated for CaCl2; not restated for the chelate), premixed with phytate at mass ratio 1:1) [μg/mg protein] | quantity of Ca of transport / absorption amount of Ca (Caco-2 cell monolayer; 180 min, apical to basolateral, HBSS, VERG-Ca chelate 200 μM or Ca 150 μg/mL, atomic absorption spectrometry) [μg/mg protein] | absorption amount of Ca with vitamin D3 (Caco-2 cell monolayer; 180 min, premixed with vitamin D3 at mass ratio 1:1) [μg/mg protein] |
| --- | --- | --- | --- | --- | --- |
| CC(C)[C@H](N)C(=O)N[C@@H](CCC(=O)O)C(=O)N[C@@H](CCCNC(=N)N)C(=O)NCC(=O)O [ACP4, Val-Glu-Arg-Gly] (H-VERG-OH) | significantly decrease the viability | no significant effect on cell viability |  |  |  |
| [Ca+2].[Cl-].[Cl-] [CaCl2] |  |  | 2.02 ± 0.24 | 2.96 ± 0.28 | 5.14 ± 0.23 |
